Values after ≈ are worked out from the molar mass of the structure shown. Active and inactive are the calls of the source. No cut-off for these calls is given here.
Tests used:
Staphylococcus aureus [1] = experiment: Antibacterial activity against Staphylococcus aureus ATCC 29213 after 18 hrs by broth microdilution method; assay type: functional; conditions: ATCC 29213, 18 h
Enterococcus faecalis [2] = experiment: Antibacterial activity against Enterococcus faecalis ATCC 29212 after 18 hrs by broth microdilution method; assay type: functional; conditions: ATCC 29212, 18 h
Escherichia coli = experiment: Antibacterial activity against Escherichia coli ATCC 25922 after 18 hrs by broth microdilution method; assay type: functional; conditions: ATCC 25922, 18 h
Staphylococcus aureus [3] = experiment: Potency index, ratio of berberine MIC to test compound MIC for Staphylococcus aureus ATCC 29213; assay type: functional
Enterococcus faecium = experiment: Potency index, ratio of berberine MIC to test compound MIC for Enterococcus faecium ATCC 49624; assay type: functional
[4] = system: Staphylococcus epidermidis; experiment: Potency index, ratio of berberine MIC to test compound MIC for Staphylococcus epidermidis ATCC 12228; assay type: functional
Staphylococcus aureus [5] = experiment: Antibacterial activity against methicillin-resistant Staphylococcus aureus ATCC BAA41 after 18 hrs by broth microdilution method; assay type: functional; conditions: ATCC BAA41, 18 h
Staphylococcus aureus [6] = experiment: Antibacterial activity against methicillin-resistant Staphylococcus aureus ATCC BAA1720 after 18 hrs by broth microdilution method; assay type: functional; conditions: ATCC BAA1720, 18 h
Enterococcus faecalis [7] = experiment: Antibacterial activity against vancomycin-resistant Enterococcus faecalis ATCC 51575 after 18 hrs by broth microdilution method; assay type: functional; conditions: ATCC 51575, 18 h
Staphylococcus aureus [8] = experiment: Potency index, ratio of methicillin MIC to test compound MIC for methicillin-resistant Staphylococcus aureus ATCC 33591; assay type: functional
Staphylococcus aureus [9] = experiment: Antibacterial activity against methicillin-resistant Staphylococcus aureus isolate 3123 after 18 hrs by broth microdilution method; assay type: functional; conditions: isolate 3123, 18 h
Staphylococcus aureus [10] = experiment: Antibacterial activity against methicillin-resistant Staphylococcus aureus isolate 7247 after 18 hrs by broth microdilution method; assay type: functional; conditions: isolate 7247, 18 h
Staphylococcus aureus [11] = experiment: Antibacterial activity against methicillin-resistant Staphylococcus aureus isolate 7971 after 18 hrs by broth microdilution method; assay type: functional; conditions: isolate 7971, 18 h
Staphylococcus aureus [12] = experiment: Antibacterial activity against methicillin-resistant Staphylococcus aureus isolate 7807 after 18 hrs by broth microdilution method; assay type: functional; conditions: isolate 7807, 18 h
Staphylococcus aureus [13] = experiment: Antibacterial activity against methicillin-resistant Staphylococcus aureus isolate 2491 after 18 hrs by broth microdilution method; assay type: functional; conditions: isolate 2491, 18 h
Staphylococcus aureus [14] = experiment: Antibacterial activity against methicillin-resistant Staphylococcus aureus isolate 2931 after 18 hrs by broth microdilution method; assay type: functional; conditions: isolate 2931, 18 h
Staphylococcus aureus [15] = experiment: Antibacterial activity against methicillin-resistant Staphylococcus aureus isolate 7863 after 18 hrs by broth microdilution method; assay type: functional; conditions: isolate 7863, 18 h
Staphylococcus aureus [16] = experiment: Antibacterial activity against methicillin-resistant Staphylococcus aureus isolate 7943 after 18 hrs by broth microdilution method; assay type: functional; conditions: isolate 7943, 18 h
Staphylococcus aureus [17] = experiment: Antibacterial activity against methicillin-resistant Staphylococcus aureus isolate 1610 after 18 hrs by broth microdilution method; assay type: functional; conditions: isolate 1610, 18 h
Staphylococcus aureus [18] = experiment: Antibacterial activity against methicillin-resistant Staphylococcus aureus isolate 7813 after 18 hrs by broth microdilution method; assay type: functional; conditions: isolate 7813, 18 h
Staphylococcus aureus [19] = experiment: Antibacterial activity against methicillin-resistant Staphylococcus aureus isolate 5426 after 18 hrs by broth microdilution method; assay type: functional; conditions: isolate 5426, 18 h
Staphylococcus aureus [20] = experiment: Antibacterial activity against methicillin-resistant Staphylococcus aureus isolate 1220 after 18 hrs by broth microdilution method; assay type: functional; conditions: isolate 1220, 18 h
Staphylococcus aureus [21] = experiment: Antibacterial activity against methicillin-resistant Staphylococcus aureus isolate 6515 after 18 hrs by broth microdilution method; assay type: functional; conditions: isolate 6515, 18 h
Staphylococcus aureus [22] = experiment: Antibacterial activity against methicillin-resistant Staphylococcus aureus isolate 4023 after 18 hrs by broth microdilution method; assay type: functional; conditions: isolate 4023, 18 h
Staphylococcus aureus [23] = experiment: Antibacterial activity against methicillin-resistant Staphylococcus aureus isolate 1651 after 18 hrs by broth microdilution method; assay type: functional; conditions: isolate 1651, 18 h
Staphylococcus aureus [24] = experiment: Antibacterial activity against methicillin-resistant Staphylococcus aureus isolate 8179 after 18 hrs by broth microdilution method; assay type: functional; conditions: isolate 8179, 18 h
Staphylococcus aureus [25] = experiment: Antibacterial activity against methicillin-resistant Staphylococcus aureus isolate 8071 after 18 hrs by broth microdilution method; assay type: functional; conditions: isolate 8071, 18 h
Staphylococcus aureus [26] = experiment: Antibacterial activity against methicillin-resistant Staphylococcus aureus isolate 5395 after 18 hrs by broth microdilution method; assay type: functional; conditions: isolate 5395, 18 h
Staphylococcus aureus [27] = experiment: Antibacterial activity against methicillin-resistant Staphylococcus aureus isolate 7844 after 18 hrs by broth microdilution method; assay type: functional; conditions: isolate 7844, 18 h
Staphylococcus aureus [28] = experiment: Antibacterial activity against methicillin-resistant Staphylococcus aureus isolate 7916 after 18 hrs by broth microdilution method; assay type: functional; conditions: isolate 7916, 18 h
Staphylococcus aureus [29] = experiment: Antibacterial activity against methicillin-resistant Staphylococcus aureus isolate 5239 after 18 hrs by broth microdilution method; assay type: functional; conditions: isolate 5239, 18 h
Staphylococcus aureus [30] = experiment: Antibacterial activity against methicillin-resistant Staphylococcus aureus isolate 2350 after 18 hrs by broth microdilution method; assay type: functional; conditions: isolate 2350, 18 h
Staphylococcus aureus [31] = experiment: Antibacterial activity against methicillin-resistant Staphylococcus aureus isolate 7536 after 18 hrs by broth microdilution method; assay type: functional; conditions: isolate 7536, 18 h
Staphylococcus aureus [32] = experiment: Antibacterial activity against methicillin-resistant Staphylococcus aureus isolate 5035 after 18 hrs by broth microdilution method; assay type: functional; conditions: isolate 5035, 18 h
Staphylococcus aureus [33] = experiment: Antibacterial activity against methicillin-resistant Staphylococcus aureus isolate 1947 after 18 hrs by broth microdilution method; assay type: functional; conditions: isolate 1947, 18 h
Staphylococcus aureus [34] = experiment: Antibacterial activity against methicillin-resistant Staphylococcus aureus isolate 8078 after 18 hrs by broth microdilution method; assay type: functional; conditions: isolate 8078, 18 h
Staphylococcus aureus [35] = experiment: Antibacterial activity against methicillin-resistant Staphylococcus aureus isolate 7434 after 18 hrs by broth microdilution method; assay type: functional; conditions: isolate 7434, 18 h
Staphylococcus aureus [36] = experiment: Antibacterial activity against methicillin-resistant Staphylococcus aureus isolate 7183 after 18 hrs by broth microdilution method; assay type: functional; conditions: isolate 7183, 18 h
Enterococcus faecalis [37] = experiment: Bactericidal activity against vancomycin-resistant Enterococcus faecalis ATCC 700221 after 18 hrs by broth microdilution method; assay type: functional; conditions: ATCC 700221, 18 h
[38] = molecular target: T1, Cell division protein FtsZ (Staphylococcus aureus) (UniProt P0A031); experiment: Inhibition of recombinant Staphylococcus aureus FtsZ polymerization at 8 ug/ml by 90 degree light scattering-based fluorescence spectrometric analysis
T1 sequence (whole entry): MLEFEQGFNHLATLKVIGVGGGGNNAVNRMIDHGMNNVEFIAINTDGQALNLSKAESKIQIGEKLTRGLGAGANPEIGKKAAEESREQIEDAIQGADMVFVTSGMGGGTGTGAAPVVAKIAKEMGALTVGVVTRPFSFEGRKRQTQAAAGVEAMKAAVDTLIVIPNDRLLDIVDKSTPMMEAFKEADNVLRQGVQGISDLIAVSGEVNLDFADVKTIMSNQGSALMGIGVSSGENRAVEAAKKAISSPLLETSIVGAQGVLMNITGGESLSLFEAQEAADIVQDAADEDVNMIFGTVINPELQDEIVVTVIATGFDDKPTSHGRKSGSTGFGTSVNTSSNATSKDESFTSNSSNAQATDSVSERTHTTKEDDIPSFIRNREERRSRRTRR

Enterococcus faecalis [39] = experiment: Ratio of MBC to MIC for vancomycin-resistant Enterococcus faecalis ATCC 700221; assay type: functional

In the case of CC(C)(C)c1ccc(CN2CCCN(CCc3cc(-c4cccs4)nc(-c4ccncc4)n3)CC2)cc1, the MIC90 (Staphylococcus aureus [1]) is reported as 2 µg/mL (≈ 3.91 µM), the MIC90 (Enterococcus faecalis [2]) is reported as 2 µg/mL (≈ 3.91 µM) and the MIC90 (Escherichia coli) is reported as 128 µg/mL (≈ 250 µM). The Ratio (Staphylococcus aureus [3]) was 50 - 100, the Ratio (Enterococcus faecium) was 50 - 100 and the Ratio [4] was 50 - 100. The MIC90 (Staphylococcus aureus [5]) was 2 µg/mL (≈ 3.91 µM), the MIC90 (Staphylococcus aureus [6]) was 2 µg/mL (≈ 3.91 µM) and the MIC90 (Enterococcus faecalis [7]) was 4 µg/mL (≈ 7.82 µM). The Ratio (Staphylococcus aureus [8]) was >100, the MIC90 (Staphylococcus aureus [9]) was 2 µg/mL (≈ 3.91 µM) and the MIC90 (Staphylococcus aureus [10]) was 2 µg/mL (≈ 3.91 µM). The MIC90 (Staphylococcus aureus [11]) was 2 µg/mL (≈ 3.91 µM), the MIC90 (Staphylococcus aureus [12]) was 2 µg/mL (≈ 3.91 µM) and the MIC90 (Staphylococcus aureus [13]) was 4 µg/mL (≈ 7.82 µM). It also gave an MIC90 (Staphylococcus aureus [14]) of 2 µg/mL (≈ 3.91 µM), an MIC90 (Staphylococcus aureus [15]) of 2 µg/mL (≈ 3.91 µM) and an MIC90 (Staphylococcus aureus [16]) of 2 µg/mL (≈ 3.91 µM). It also gave an MIC90 (Staphylococcus aureus [17]) of 4 µg/mL (≈ 7.82 µM), an MIC90 (Staphylococcus aureus [18]) of 2 µg/mL (≈ 3.91 µM) and an MIC90 (Staphylococcus aureus [19]) of 2 µg/mL (≈ 3.91 µM). The MIC90 (Staphylococcus aureus [20]) was 2 µg/mL (≈ 3.91 µM), the MIC90 (Staphylococcus aureus [21]) was 4 µg/mL (≈ 7.82 µM) and the MIC90 (Staphylococcus aureus [22]) was 2 µg/mL (≈ 3.91 µM). For the same molecule, the MIC90 (Staphylococcus aureus [23]) was 2 µg/mL (≈ 3.91 µM), the MIC90 (Staphylococcus aureus [24]) was 2 µg/mL (≈ 3.91 µM) and the MIC90 (Staphylococcus aureus [25]) was 2 µg/mL (≈ 3.91 µM). It also gave an MIC90 (Staphylococcus aureus [26]) of 2 µg/mL (≈ 3.91 µM), an MIC90 (Staphylococcus aureus [27]) of 2 µg/mL (≈ 3.91 µM) and an MIC90 (Staphylococcus aureus [28]) of 2 µg/mL (≈ 3.91 µM). It also gave an MIC90 (Staphylococcus aureus [29]) of 2 µg/mL (≈ 3.91 µM), an MIC90 (Staphylococcus aureus [30]) of 2 µg/mL (≈ 3.91 µM) and an MIC90 (Staphylococcus aureus [31]) of 2 µg/mL (≈ 3.91 µM). It also gave an MIC90 (Staphylococcus aureus [32]) of 2 µg/mL (≈ 3.91 µM), an MIC90 (Staphylococcus aureus [33]) of 2 µg/mL (≈ 3.91 µM) and an MIC90 (Staphylococcus aureus [34]) of 2 µg/mL (≈ 3.91 µM). It also gave an MIC90 (Staphylococcus aureus [35]) of 2 µg/mL (≈ 3.91 µM), an MIC90 (Staphylococcus aureus [36]) of 2 µg/mL (≈ 3.91 µM) and an MBC (Enterococcus faecalis [37]) of 4 µg/mL (≈ 7.82 µM). For the same molecule, the inhibition [38] was “Active” and the Ratio (Enterococcus faecalis [39]) was 1.
